“And” between values parts separate entries of the source, which are not always exact repeats. Equal values may be shown once. Read-outs that look alike come from different tables or passages of the source.
Key:
[1] = biological target: Recombinant SARS-CoV-2 3CL Protease (Severe acute respiratory syndrome coronavirus 2 (2019-nCoV) (SARS-CoV-2), UniProt P0DTD1); assay: biochemical; format: biochemical; settings: 50% SARS-CoV-2 3CL protease inhibitory concentration; read-out: IC50
SARS-CoV-2 = assay: Cytopathic effect (CPE) suppression effect confirmation test using HEK293T/ACE2-TMPRSS2 cells; format: cell-based; settings: Severe acute respiratory syndrome coronavirus 2, HEK-293T
[2] = 72 h, HEK293T/ACE2-TMPRSS2 cells, CPE suppression, CellTiter-Glo 2.0 after 3 days culture, read-out: EC50 (50% SARS-CoV-2 infected cell death inhibitory concentration), class
[3] = 50% SARS-CoV-2 infected cell death inhibitory concentration, HEK293T/ACE2-TMPRSS2 cells, read-out: EC50

SMILES | IC50 [1] | other results
CC1(c2ccc(F)c(Cl)c2)CN(CC#N)C(=O)N(c2cncc(Cl)c2)C1=O (racemic) [Compound I-283] | < 10 nM and > 100 nM | –
N#CCn1c(N2CC3(CCOC3)C2)c(Cc2cc(F)c(F)c(F)c2)c(=O)n(CCC(N)=O)c1=O [Compound I-001] | > 100 nM | –
Cn1cnc(Cn2c(=O)c(Cc3cc(F)c(F)c(F)c3)c(N3Cc4cn[nH]c4C3)n(CC#N)c2=O)n1 [Compound I-002] | > 100 nM | –
Cc1cncc(-n2c(=O)c(Cc3cc(F)c(F)c(F)c3)c(OC(C(F)(F)F)C(F)(F)F)n(CC#N)c2=O)c1 [Compound I-004] | > 100 nM | –
Cc1cncc(-n2c(=O)c(Cc3cc(F)c(F)c(F)c3)c(Cl)n(CC#N)c2=O)c1 [Compound I-013] | 10 to 100 nM | –
Cc1cncc(-n2c(=O)c(-c3ccc(F)c(Cl)c3)c(-c3ccc(C(=O)O)cc3)n(CC#N)c2=O)c1 [Compound I-024] | > 100 nM | –
N#CCn1c(N2CC3(C2)CC(F)(F)C3)c(-c2ccc(F)c(Cl)c2)c(=O)n(-c2cncc(Cl)c2)c1=O [Compound I-077] | – | EC50 (SARS-CoV-2; 72 h, read-out: EC50 (50% SARS-CoV-2 infected cell death inhibitory concentration), HEK293T/ACE2-TMPRSS2 cells, CPE suppression, CellTiter-Glo 2.0 after 3 days culture): 1.66 nM
N#CCn1c(N2CC(n3cccn3)C2)c(-c2ccc(F)c(Cl)c2)c(=O)n(-c2cncc(Cl)c2)c1=O [Compound I-080] | < 10 nM | –
N#CCn1c(N2CCN(c3ccccc3)C(=O)C2)c(-c2ccc(F)c(Cl)c2)c(=O)n(-c2cncc(Cl)c2)c1=O [Compound I-081] | > 100 nM | –
Cn1cnc(Cn2c(=O)c(Cc3cc(F)c(F)c(F)c3)c(N3CC4(CCOC4)C3)n(CC#N)c2=O)n1 [Compound I-089] | > 100 nM | –
Cc1cncc(-n2c(=O)c(Cc3cc(F)c(F)c(F)c3)c(N3C[C@@H]4[C@H](C3)C4(F)F)n(CC#N)c2=O)c1 [Compound I-099] | – | EC50 (SARS-CoV-2; [2]): < 100 nM
Cc1cc(-n2c(=O)c(Cc3cc(F)c(F)c(F)c3)c(N3CC4(CCOC4)C3)n(CC#N)c2=O)cc(=O)[nH]1 [Compound I-123] | > 100 nM | –
N#CCn1c(Cl)c(-c2ccc(F)c(Cl)c2)c(=O)n(-c2cnc3ccc(F)cn23)c1=O [Compound I-125] | > 100 nM | –
CC1(C)CN(c2c(-c3ccc(F)c(Cl)c3)c(=O)n(-c3cnc4cc(F)ccn34)c(=O)n2CC#N)C1 [Compound I-154] | < 10 nM | –
N#CCn1c(N2Cc3ccccc3C2)c(Cc2cc(F)c(F)c(F)c2)c(=O)n(-c2cncc(=O)[nH]2)c1=O [Compound I-158] | 10 to 100 nM | –
N#CCn1c(N2CC3(CCOC3)C2)c(-c2ccc(F)c(Cl)c2)c(=O)n(-c2cc(C(F)(F)F)[nH]c(=O)c2)c1=O [Compound I-186] | 10 to 100 nM | –
N#CCn1c(N2CC3(CCOC3)C2)c(-c2ccc(F)c(Cl)c2)c(=O)n(-c2cc(Cl)[nH]c(=O)c2)c1=O [Compound I-187] | 10 to 100 nM | –
Cc1cncc(-n2c(=O)c(-c3ccc(F)c(Cl)c3)c(N3CC4(CCOCC4)C3)n(CC#N)c2=O)n1 [Compound I-193] | – | EC50 (SARS-CoV-2; [2]): < 100 nM
Cc1cncc(-n2c(=O)c(-c3ccc(F)c(Cl)c3)c(N3CCC(C(F)F)CC3)n(CC#N)c2=O)n1 [Compound I-194] | – | EC50 (SARS-CoV-2; [2]): < 100 nM
N#CCn1c(N2CC3(C2)CC(F)(F)C3)c(-c2ccc(F)c(Cl)c2)c(=O)n(-c2cc(=O)cc(Br)[nH]2)c1=O [Compound I-222] | > 100 nM | –
N#CCn1c(N2CCCC2)c(-c2ccc(F)c(Cl)c2)c(=O)n(-c2cncc(Cl)c2)c1=O [Compound I-252] | < 10 nM | –
N#CCn1c(N2CCc3ccccc3C2)c(-c2ccc(F)c(Cl)c2)c(=O)n(-c2cncc(Cl)c2)c1=O [Compound I-253] | – | EC50 (SARS-CoV-2; [3]): < 100 nM
N#CCn1c(N2CCCCC2)c(-c2ccc(F)c(Cl)c2)c(=O)n(-c2cncc(Cl)c2)c1=O [Compound I-254] | < 10 nM | –
Cc1cncc(-n2c(=O)c(-c3ccc(F)c(Cl)c3)c(-c3ccccc3)n(CC#N)c2=O)c1 [Compound I-268] | – | EC50 (SARS-CoV-2; [3]): < 100 nM
Cc1cncc(-n2c(=O)c(-c3ccc(F)c(Cl)c3)c(-c3ccc(C4CC4)nc3)n(CC#N)c2=O)c1 [Compound I-269] | – | EC50 (SARS-CoV-2; [3]): < 100 nM
Cc1cc(-n2c(=O)c(-c3ccc(F)c(Cl)c3)c(Cl)n(CC#N)c2=O)c[n+]([O-])c1 [Compound I-277] | > 100 nM | –
N#CCn1c(N2CC3(CCOC3)C2)c(C2CCCCC2)c(=O)n(-c2cncc(Cl)c2)c1=O [Compound I-285] | > 100 nM | –

Source: patent US20250092056A1, “URACIL DERIVATIVES HAVING VIRUS REPLICATION INHIBITORY ACTIVITY AND PHARMACEUTICAL COMPOSITION COMPRISING THE SAME” (Shionogi & Co., Ltd., priority 2022, published 2025)
